# Experimental data from patent publication US20080207705A1, “Heteroaryl-Imidazole Derivatives as Cannabinoid CB1 Receptor Antagonists” (Green Cross Corporation, priority 2007, published 2008).
# Target: T1, rat CB-1 receptor (Rattus norvegicus, UniProt P20272)
# T1 construct: The tissue obtained from the brain of SD rats was homogenized; from tissue; host or cells: brain of SD rats (membrane pellet of homogenate)
# Experiment: rat CB-1 receptor binding protocol with [3H]CP-55940
# Conditions: not given
# T1 sequence (P20272 whole entry): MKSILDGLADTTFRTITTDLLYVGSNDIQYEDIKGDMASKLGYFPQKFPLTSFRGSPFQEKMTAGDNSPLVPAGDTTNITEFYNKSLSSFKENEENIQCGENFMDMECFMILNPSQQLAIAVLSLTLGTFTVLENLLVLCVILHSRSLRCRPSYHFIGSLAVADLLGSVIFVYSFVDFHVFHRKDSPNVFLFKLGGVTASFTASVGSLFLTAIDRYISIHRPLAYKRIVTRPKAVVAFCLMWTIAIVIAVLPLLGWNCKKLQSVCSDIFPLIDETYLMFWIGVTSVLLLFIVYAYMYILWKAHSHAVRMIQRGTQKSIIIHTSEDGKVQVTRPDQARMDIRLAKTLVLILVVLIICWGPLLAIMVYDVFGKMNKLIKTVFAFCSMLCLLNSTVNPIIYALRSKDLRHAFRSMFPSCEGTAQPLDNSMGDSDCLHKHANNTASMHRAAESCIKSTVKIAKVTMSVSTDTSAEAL
row,Structure (SMILES),IC50
1,"Cc1c(-c2nnc(C3CCCC3)o2)nc(-c2ccc(Cl)cc2Cl)n1-c1ccc(Cl)cc1 [Example 3, 2-(1-(4-Chlorophenyl)-2-(2,4-dichlorophenyl)-5-methyl-1H-imidazol-4-yl)-5-cyclopentyl-1,3,4-oxadiazole]",35.3 nM
2,"CCCC(C)c1nnc(-c2nc(-c3ccc(Cl)cc3Cl)n(-c3ccc(Cl)cc3)c2C)o1 (stereo not shown) [Example 7, 2-(1-(4-Chlorophenyl)-2-(2,4-dichlorophenyl)-5-methyl-1H-imidazol-4-yl)-5-(pentan-2-yl)-1,3,4-oxadiazole]",14.2 nM
3,"Cc1c(-c2nnc(C(C)C)o2)nc(-c2ccc(Cl)cc2Cl)n1-c1ccc(Cl)cc1 [Example 9, 2-(1-(4-Chlorophenyl)-2-(2,4-dichlorophenyl)-5-methyl-1H-imidazol-4-yl)-5-isopropyl-1,3,4-oxadiazole]",25.8 nM
4,"Cc1c(-c2nnc(C(C)c3ccccc3)o2)nc(-c2ccc(Cl)cc2Cl)n1-c1ccc(Cl)cc1 (stereo not shown) [Example 11, 2-(1-(4-Chlorophenyl)-2-(2,4-dichlorophenyl)-5-methyl-1H-imidazol-4-yl)-5-(1-phenylethyl)-1,3,4-oxadiazole]",31.4 nM
5,"CCc1c(-c2nnc(C(C)(C)C)o2)nc(-c2ccc(Cl)cc2Cl)n1-c1ccc(Cl)cc1 [Example 15, 2-tert-butyl-5-(1-(4-chlorophenyl)-2-(2,4-dichlorophenyl)-5-ethyl-1H-imidazol-4-yl)-1,3,4-oxadiazole]",18.1 nM
6,"Cc1c(-c2nnc(C3CCCCC3)o2)nc(-c2ccc(Cl)cc2Cl)n1-c1ccc(Br)cc1 [Example 19, 2-(1-(4-Bromophenyl)-2-(2,4-dichlorophenyl)-5-methyl-1H-imidazol-4-yl)-5-cyclohexyl-1,3,4-oxadiazole]",70 nM
7,"Cc1c(-c2nnc(C3CCC3)o2)nc(-c2ccc(Cl)cc2Cl)n1-c1ccc(Br)cc1 [Example 22, 2-(1-(4-Bromophenyl)-2-(2,4-dichlorophenyl)-5-methyl-1H-imidazol-4-yl)-5-cyclobutyl-1,3,4-oxadiazole]",29.3 nM
8,"CC(C)c1c(-c2nnc(C(C)(C)C)o2)nc(-c2ccc(Cl)cc2Cl)n1-c1ccc(Br)cc1 [Example 25, 2-(1-(4-Bromophenyl)-2-(2,4-dichlorophenyl)-5-isopropyl-1H-imidazol-4-yl)-5-tert-butyl-1,3,4-oxadiazole]",21.2 nM
9,"CCc1c(-c2nnc(C3(c4ccccc4)CC3)o2)nc(-c2ccc(Cl)cc2Cl)n1-c1ccc(Br)cc1 [Example 27, 2-(1-(4-Bromophenyl)-2-(2,4-dichlorophenyl)-5-ethyl-1H-imidazol-4-yl)-5-(1-phenylcyclopropyl)-1,3,4-oxadiazole]",9.14 nM

# Same assay, conditions: [3H]CP-55940, brain tissue of SD rats, 30 °C for 60 min; read-out: IC50
row,Structure (SMILES),IC50
1,"Cc1c(-c2nnc(C(C)(C)C)o2)nc(-c2ccc(Cl)cc2Cl)n1-c1ccc(Cl)cc1 [Example 1, 2-tert-Butyl-5-(1-(4-chlorophenyl)-2-(2,4-dichlorophenyl)-5-methyl-1H-imidazol-4-yl)-1,3,4-oxadiazole]",13.2 nM
2,"Cc1c(-c2nnc(C3CCCCC3)o2)nc(-c2ccc(Cl)cc2Cl)n1-c1ccc(Cl)cc1 [Example 2, 2-(1-(4-Chlorophenyl)-2-(2,4-dichlorophenyl)-5-methyl-1H-imidazol-4-yl)-5-cyclohexyl-1,3,4-oxadiazole]",115 nM
3,"Cc1c(-c2nnc(C3CCC3)o2)nc(-c2ccc(Cl)cc2Cl)n1-c1ccc(Cl)cc1 [Example 4, 2-(1-(4-Chlorophenyl)-2-(2,4-dichlorophenyl)-5-methyl-1H-imidazol-4-yl)-5-cyclobutyl-1,3,4-oxadiazole]",38.7 nM
4,"Cc1c(-c2nnc(C3CCCCCC3)o2)nc(-c2ccc(Cl)cc2Cl)n1-c1ccc(Cl)cc1 [Example 5, 2-(1-(4-Chlorophenyl)-2-(2,4-dichlorophenyl)-5-methyl-1H-imidazol-4-yl)-5-cycloheptyl-1,3,4-oxadiazole]",27.6 nM
5,"CCCCC(C)c1nnc(-c2nc(-c3ccc(Cl)cc3Cl)n(-c3ccc(Cl)cc3)c2C)o1 (stereo not shown) [Example 6, 2-(1-(4-Chlorophenyl)-2-(2,4-dichlorophenyl)-5-methyl-1H-imidazol-4-yl)-5-(hexan-2-yl)-1,3,4-oxadiazole]",12.9 nM
6,"CCC(C)c1nnc(-c2nc(-c3ccc(Cl)cc3Cl)n(-c3ccc(Cl)cc3)c2C)o1 (stereo not shown) [Example 8, 2-sec-Butyl-5-(1-(4-chlorophenyl)-2-(2,4-dichlorophenyl)-5-methyl-1H-imidazol-4-yl)-1,3,4-oxadiazole]",39.4 nM
7,"CCC(CC)c1nnc(-c2nc(-c3ccc(Cl)cc3Cl)n(-c3ccc(Cl)cc3)c2C)o1 [Example 10, 2-(1-(4-Chlorophenyl)-2-(2,4-dichlorophenyl)-5-methyl-1H-imidazol-4-yl)-5-(pentan-3-yl)-1,3,4-oxadiazole]",22.3 nM
8,"CCc1c(-c2nnc(C3CCCCC3)o2)nc(-c2ccc(Cl)cc2Cl)n1-c1ccc(Cl)cc1 [Example 12, 2-(1-(4-Chlorophenyl)-2-(2,4-dichlorophenyl)-5-ethyl-1H-imidazol-4-yl)-5-cyclohexyl-1,3,4-oxadiazole]",48.4 nM
9,"CCc1c(-c2nnc(C3CCCC3)o2)nc(-c2ccc(Cl)cc2Cl)n1-c1ccc(Cl)cc1 [Example 13, 2-(1-(4-Chlorophenyl)-2-(2,4-dichlorophenyl)-5-ethyl-1H-imidazol-4-yl)-5-cyclopentyl-1,3,4-oxadiazole]",25.8 nM
10,"CCc1c(-c2nnc(C3CCC3)o2)nc(-c2ccc(Cl)cc2Cl)n1-c1ccc(Cl)cc1 [Example 14, 2-(1-(4-Chlorophenyl)-2-(2,4-dichlorophenyl)-5-ethyl-1H-imidazol-4-yl)-5-cyclobutyl-1,3,4-oxadiazole]",34.1 nM
11,"CCCCC(C)c1nnc(-c2nc(-c3ccc(Cl)cc3Cl)n(-c3ccc(Cl)cc3)c2CC)o1 (stereo not shown) [Example 16, 2-(1-(4-Chlorophenyl)-2-(2,4-dichlorophenyl)-5-ethyl-1H-imidazol-4-yl)-5-(hexan-2-yl)-1,3,4-oxadiazole]",11.2 nM
12,"CCCC(C)c1nnc(-c2nc(-c3ccc(Cl)cc3Cl)n(-c3ccc(Cl)cc3)c2CC)o1 (stereo not shown) [Example 17, 2-(1-(4-Chlorophenyl)-2-(2,4-dichlorophenyl)-5-ethyl-1H-imidazol-4-yl)-5-(pentan-2-yl)-1,3,4-oxadiazole]",11.5 nM
13,"CCc1c(-c2nnc(C(C)CC)o2)nc(-c2ccc(Cl)cc2Cl)n1-c1ccc(Cl)cc1 (stereo not shown) [Example 18, 2-sec-Butyl-5-(1-(4-chlorophenyl)-2-(2,4-dichlorophenyl)-5-ethyl-1H-imidazol-4-yl)-1,3,4-oxadiazole]",17.9 nM
14,"Cc1c(-c2nnc(C(C)(C)C)o2)nc(-c2ccc(Cl)cc2Cl)n1-c1ccc(Br)cc1 [Example 20, 2-(1-(4-Bromophenyl)-2-(2,4-dichlorophenyl)-5-methyl-1H-imidazol-4-yl)-5-tert-butyl-1,3,4-oxadiazole]",5.81 nM
15,"CCc1c(-c2nnc(C(C)(C)C)o2)nc(-c2ccc(Cl)cc2Cl)n1-c1ccc(Br)cc1 [Example 21, 2-(1-(4-Bromophenyl)-2-(2,4-dichlorophenyl)-5-ethyl-1H-imidazol-4-yl)-5-tert-butyl-1,3,4-oxadiazole]",3.15 nM
16,"CCc1c(-c2nnc(C3CCC3)o2)nc(-c2ccc(Cl)cc2Cl)n1-c1ccc(Br)cc1 [Example 23, 2-(1-(4-Bromophenyl)-2-(2,4-dichlorophenyl)-5-ethyl-1H-imidazol-4-yl)-5-cyclobutyl-1,3,4-oxadiazole]",24.1 nM
17,"CC(C)(C)c1nnc(-c2nc(-c3ccc(Cl)cc3Cl)n(-c3ccc(Cl)cc3)c2C2CC2)o1 [Example 24, 2-tert-Butyl-5-(1-(4-chlorophenyl)-5-cyclopropyl-2-(2,4-dichlorophenyl)-1H-imidazol-4-yl)-1,3,4-oxadiazole]",79.9 nM
18,"CC(C)c1c(-c2nnc(C3(c4ccccc4)CC3)o2)nc(-c2ccc(Cl)cc2Cl)n1-c1ccc(Br)cc1 [Example 26, 2-(1-(4-Bromophenyl)-2-(2,4-dichlorophenyl)-5-isopropyl-1H-imidazol-4-yl)-5-(1-phenylcyclopropyl)-1,3,4-oxadiazole]",10.3 nM
19,"CC(C)c1c(-c2nnc(C3(c4ccccc4)CC3)o2)nc(-c2ccc(Cl)cc2Cl)n1-c1ccc(Cl)cc1 [Example 28, 2-(1-(4-Chlorophenyl)-2-(2,4-dichlorophenyl)-5-isopropyl-1H-imidazol-4-yl)-5-(1-phenylcyclopropyl)-1,3,4-oxadiazole]",15.5 nM
20,"CCCc1c(-c2nnc(C(C)(C)C)o2)nc(-c2ccc(Cl)cc2Cl)n1-c1ccc(Br)cc1 [Example 29, 2-(1-(4-Bromophenyl)-2-(2,4-dichlorophenyl)-5-propyl-1H-imidazol-4-yl)-5-tert-butyl-1,3,4-oxadiazole]",71.5 nM
21,"CCCc1c(-c2nnc(C3CCCCC3)o2)nc(-c2ccc(Cl)cc2Cl)n1-c1ccc(Br)cc1 [Example 30, 2-(1-(4-Bromophenyl)-2-(2,4-dichlorophenyl)-5-propyl-1H-imidazol-4-yl)-5-cyclohexyl-1,3,4-oxadiazole]",392 nM
22,"CCCc1c(-c2nnc(C3(c4ccccc4)CC3)o2)nc(-c2ccc(Cl)cc2Cl)n1-c1ccc(Br)cc1 [Example 31, 2-(1-(4-Bromophenyl)-2-(2,4-dichlorophenyl)-5-propyl-1H-imidazol-4-yl)-5-(1-phenylcyclopropyl)-1,3,4-oxadiazole]",46.1 nM
23,"CCCc1c(-c2nnc(C3CCC3)o2)nc(-c2ccc(Cl)cc2Cl)n1-c1ccc(Br)cc1 [Example 32, 2-(1-(4-Bromophenyl)-2-(2,4-dichlorophenyl)-5-propyl-1H-imidazol-4-yl)-5-cyclobutyl-1,3,4-oxadiazole]",68.9 nM
24,"CCCc1c(-c2nnc(C3(c4ccc(Cl)cc4)CC3)o2)nc(-c2ccc(Cl)cc2Cl)n1-c1ccc(Br)cc1 [Example 33, 2-(1-(4-Bromophenyl)-2-(2,4-dichlorophenyl)-5-propyl-1H-imidazol-4-yl)-5-(1-(4-chlorophenyl)cyclopropyl)-1,3,4-oxadiazole]",19.2 nM
25,"CCCc1c(-c2nnc(C3(c4ccc(Cl)cc4)CCC3)o2)nc(-c2ccc(Cl)cc2Cl)n1-c1ccc(Br)cc1 [Example 34, 2-(1-(4-Bromophenyl)-2-(2,4-dichlorophenyl)-5-propyl-1H-imidazol-4-yl)-5-(1-(4-chlorophenyl)cyclobutyl)-1,3,4-oxadiazole]",9.05 nM
